Results published in patent US20130143929A1, “FUNGICIDAL IMIDAZOLES” (EI DU PONT DE NEMOURS AND COMPANY, priority 2010, published 2013).
Marks after values point to notes of the source that are not given here.

Assays:
Assay type in all cases: in vivo
[1] = tested on: Puccinia recondite f. sp. tritici (the causal agent of wheat leaf rust); test: Test A: wheat leaf rust, preventive spray on wheat seedlings, visual disease rating; details: for Test A rating (100 = 100% disease control, 0 = no disease control relative to the controls): wheat leaf rust, preventive spray on wheat seedlings; for Test A rating (% disease control, wheat leaf rust): 100 = 100% disease control
Summary of the method: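 Wheat seedlings were sprayed to run-off with compound suspended in acetone/water containing 250 ppm Trem 014 (200 ppm ≈ 800 g/ha; some at 40 ppm). Puccinia recondite spores were inoculated the next day. Plants were held 24 h saturated at 20° C, then 7 days at 20° C, and disease control was rated visually on a 0–100 scale against controls.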

[2] = tested on: Septoria tritici (the causal agent of wheat leaf blotch); test: Test B: wheat leaf blotch, preventive spray on wheat seedlings, visual disease rating; details: for Test B rating (100 = 100% disease control, 0 = no disease control relative to the controls): wheat leaf blotch, preventive spray on wheat seedlings; for Test B rating (% disease control, wheat leaf blotch): 100 = 100% disease control
Summary of the method: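 Wheat seedlings sprayed to run-off with compound suspension (acetone/water with 250 ppm Trem 014; 200 ppm ≈ 800 g/ha, some at 40 ppm), inoculated next day with Septoria tritici spores. 48 h saturated humidity at 24 °C, then 19 days at 20 °C; visual rating, 100 = full control.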

[3] = tested on: Botrytis cinerea (the causal agent of tomato Botrytis); test: Test C: tomato Botrytis, preventive spray on tomato seedlings, visual disease rating; details: for Test C rating (100 = 100% disease control, 0 = no disease control relative to the controls): tomato Botrytis, preventive spray on tomato seedlings; for Test C rating (% disease control, tomato Botrytis): 100 = 100% disease control
Summary of the method: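 Test suspension (acetone/water with 250 ppm Trem 014; 200 ppm equivalent to 800 g/ha) sprayed to run-off on tomato seedlings; B. cinerea spores inoculated next day. After 48 h saturated humidity at 20° C then 3 days at 24° C, disease rated visually as % control relative to untreated controls (0–100).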

[4] = tested on: Blumeria graminis f. sp. tritici (also known as Erysiphe graminis f. sp. tritici, the causal agent of wheat powdery mildew); test: Test D: wheat powdery mildew, preventive spray on wheat seedlings, visual disease rating; details: for Test D rating (100 = 100% disease control, 0 = no disease control relative to the controls): wheat powdery mildew, preventive spray on wheat seedlings; for Test D rating (% disease control, wheat powdery mildew): 100 = 100% disease control
Summary of the method: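 Compound suspended in acetone/water (50/50) with 250 ppm Trem 014 and sprayed to run-off on wheat seedlings (200 ppm ≈ 800 g/ha), then inoculated next day with spore dust. Disease rated visually after 8 days at 20 °C as % control relative to untreated plants (0-100).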

[5] = no asterisk (standard test suspension concentration, not 40 ppm)
[6] = asterisk: 40 ppm test suspension
[7] = asterisk: 40 ppm test suspension, 0 = no control
[8] = no asterisk: standard test suspension concentration, 0 = no control relative to controls

SMILES	Test A rating (100 = 100% disease control, 0 = no disease control relative to the controls) [1, 5] [%]	Test B rating (100 = 100% disease control, 0 = no disease control relative to the controls) [2, 5] [%]	Test C rating (100 = 100% disease control, 0 = no disease control relative to the controls) [3, 5] [%]	Test D rating (100 = 100% disease control, 0 = no disease control relative to the controls) [4, 5] [%]	Test A rating (100 = 100% disease control, 0 = no disease control relative to the controls) [1, 6]	Test B rating (100 = 100% disease control, 0 = no disease control relative to the controls) [2, 6]	Test C rating (100 = 100% disease control, 0 = no disease control relative to the controls) [3, 6]	Test D rating (100 = 100% disease control, 0 = no disease control relative to the controls) [4, 6]	also measured
Cc1ncn(-c2c(F)cc(F)cc2Cl)c1C(O)c1ccc(F)cc1F (racemic) [compound 12]	99	100	95	21					
Cc1cccc(Br)c1-n1c(C)nc(Br)c1C(O)c1ccc(F)cc1F (centres unmarked) [compound 337]					86* %	86* %	71* %	0* %	
Cc1ncc(C(O)c2ccc(F)cc2Cl)n1-c1c(F)cc(F)cc1Br (centres unmarked) [compound 74]	100	100	100	0					
Cc1nc(Cl)c(C(O)c2ccc(F)cc2Cl)n1-c1c(F)cc(Br)cc1F (centres unmarked) [compound 76]					99* %	100* %	0* %	0* %	
Cc1ccc(C(O)c2c(Cl)nc(C)n2-c2c(F)cccc2F)c(C)c1 (centres unmarked) [compound 191]					100* %	100* %	80* %	99* %	
Cc1nc(Cl)c(C(O)c2c(F)cc(F)cc2F)n1-c1c(F)cccc1F (centres unmarked) [compound 100]					100* %	100* %	97* %	82* %	
OC(c1ccc(Cl)cc1)c1c(Cl)nc(Cl)n1-c1ccc(F)cc1Cl (single isomer, unassigned) [compound 47]	100	100	99	0					
COc1ccc(C(O)c2c(Br)ncn2-c2c(F)cccc2F)c(Cl)c1 (stereo not drawn) [Compound 274, 4-bromo-1-(2,6-difluorophenyl)-α-(2-chloro-4-methoxyphenyl)-1H-imidazole-5-methanol]	100	97	0	64					
Cc1nc(Cl)c(C(O)c2ccc(F)cc2Cl)n1-c1ccc(F)cc1Cl (centres unmarked) [compound 129]	100	100	98	0					
Cc1nc(Br)c(C(O)c2cccnc2)n1-c1c(F)cc(F)cc1F (centres unmarked) [compound 182]	68	100	0	21					
Cc1nc(Br)c(C(O)c2ccc(F)cc2F)n1-c1c(F)cccc1Cl (centres unmarked) [compound 400]									Test A rating (% disease control, wheat leaf rust) [1, 7]: 100* %; Test B rating (% disease control, wheat leaf blotch) [2, 7]: 100* %; Test C rating (% disease control, tomato Botrytis) [3, 7]: 100* %; Test D rating (% disease control, wheat powdery mildew) [4, 7]: 100* %
Cc1cccc(Br)c1-n1c(C)nc(Cl)c1C(O)c1ccc(F)cc1F (centres unmarked) [compound 338]					94* %	93* %	70* %	56* %	
Cc1nc(Cl)c(C(O)c2c(Cl)cccc2Cl)n1-c1c(F)cccc1F (centres unmarked) [compound 193]					99* %	100* %	59* %	0* %	
COc1ccc(C(O)c2c(Br)nc(C)n2-c2c(F)cccc2Cl)c(C)c1 (racemic) [compound 224]					100* %	100* %	100* %	100* %	
COc1ccc(C(O)c2c(Cl)nc(C)n2-c2c(F)cccc2F)c(F)c1 (centres unmarked) [compound 56]					100* %	100* %	100* %	13* %	
COc1cc(F)c(C(O)c2cnc(C)n2-c2ccc(F)cc2Br)c(F)c1 (centres unmarked) [compound 322]					28* %	2* %	0* %	0* %	
Cc1ncc(C(O)c2ccc(F)cc2Cl)n1-c1c(F)cc(Cl)cc1F (centres unmarked) [compound 115]					100* %	96* %	97* %	0* %	
Cc1ncc(C(O)c2c(F)cc(F)cc2F)n1-c1ccc(F)cc1Br (centres unmarked) [compound 174]	88	35	0	0					
Cc1ncc(C(O)c2c(F)cc(F)cc2F)n1-c1ccc(F)cc1Cl (centres unmarked) [compound 170]	99	73	63	0					
OC(c1ccc(F)cc1Cl)c1c(Br)nc(Cl)n1-c1ccc(F)cc1Cl (racemic) [compound 218]					100* %	100* %	100* %	89* %	
Cc1cc(F)ccc1C(O)c1c(Cl)nc(Cl)n1-c1ccc(Cl)cc1Cl (single isomer, unassigned) [compound 84]	96	100	0	0					
Cc1nc(Br)c(C(O)c2ccc(F)cc2F)n1-c1c(F)cc(F)cc1Br (centres unmarked) [compound 394]									Test A rating (% disease control, wheat leaf rust) [1, 8]: 100%; Test B rating (% disease control, wheat leaf blotch) [2, 8]: 100%; Test C rating (% disease control, tomato Botrytis) [3, 8]: 100%; Test D rating (% disease control, wheat powdery mildew) [4, 8]: 72%
OC(c1ccc(F)cc1F)c1c(Cl)nc(Cl)n1-c1ccc(F)cc1Cl (single isomer, unassigned) [compound 20]	100	100	100	100					
